According to patent US6566355B1 (Hoffmann-La Roche Inc., priority 1991, dated 2003):
Structures can show the parent of a compound that is named as a salt. Where two headings read alike, the source gives them in different places.

Experiments:
β-lactamase = target: T1, β-lactamase (Citrobacter freundii, UniProt P05193); experiment: biochemical
T1 construct: Various β-lactamases can be isolated from penicillin- or cephalosporin-resistant bacterial strains such as; endogenous in cells; host or cells: Citrobacter freundii 1203 (enzyme purified from the crude cell extract, after ampicillin induction when necessary)
T1 sequence (P05193 21-381): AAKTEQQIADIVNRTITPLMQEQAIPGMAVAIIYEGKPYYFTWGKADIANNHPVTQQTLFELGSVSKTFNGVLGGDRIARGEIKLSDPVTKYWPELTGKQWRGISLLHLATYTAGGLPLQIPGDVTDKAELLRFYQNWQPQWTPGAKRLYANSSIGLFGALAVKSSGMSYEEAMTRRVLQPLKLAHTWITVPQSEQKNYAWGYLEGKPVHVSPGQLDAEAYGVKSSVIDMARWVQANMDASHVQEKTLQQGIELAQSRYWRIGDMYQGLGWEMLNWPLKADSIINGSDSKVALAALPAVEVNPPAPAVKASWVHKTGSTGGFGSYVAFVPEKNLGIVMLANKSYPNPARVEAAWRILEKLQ
Outline: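 β-lactamase from C. freundii 1203 crude extract (French press, 20 mM Tris-HCl pH 7.0) assayed with 0.1 mM nitrocefin in 50 mM phosphate pH 7.0 at 37° C, enzyme set to ΔA/min about 0.1, read at 482 nm. IC50 is inhibitor concentration giving 50% inhibition of nitrocefin cleavage, determined graphically.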

Citrobacter freundii = experiment: MIC in vitro of a 1:4 combination of ceftriaxone with a compound of formula I (test D); type: cell-based; details: 1:4 combination of ceftriaxone with the compound
Procedure: D. Determination of the β-lactamase-inhibiting activity by combination of a compound of general formula I with ceftriaxone
The minimum inhibitory concentration in vitro (MIC in μg/ml) of a 1:4 combination of ceftriaxone with a compound of formula I against Citrobacter freundii is measured and compiled in Table 2 hereinafter.

[1] = IC 50 nM, isolated β-lactamase of Citrobacter freundii, substrate nitrocefin 0.1 mM, 15 minutes pre-incubation with inhibitor, 37° C., pH 7.0
[2] = isolated β-lactamase of Citrobacter freundii, substrate nitrocefin 0.1 mM, 15 minutes pre-incubation with inhibitor, 37° C., pH 7.0, read-out: IC 50 nM

Compound	IC50 (β-lactamase)	MIC (Citrobacter freundii)	IC50 (β-lactamase; [1])	IC50 (β-lactamase; [2])
O=C(/C=C/c1ccco1)N1CC[C@@H]2[C@H]1C(=O)N2S(=O)(=O)O [Example 5(a), (1S,5R)-2-[(E)-3-(2-Furyl)acryloyl-7-oxo-2,6-diazabicyclo[3.20]heptane-6-sulphonic acid sodium salt]	85 nM	4 µg/mL		
O=C(NCc1ccco1)N1CC[C@@H]2[C@H]1C(=O)N2S(=O)(=O)O [Example 17(a), (1S,5R)-2-(2-Furan-2-yl-methylcarbamoyl)-7-oxo-2,6-diazabicyclo[3.2.0]heptane-6-sulphonic acid sodium salt]	156 nM	2 µg/mL		
O=C(O)C(C(=O)N1CC[C@@H]2[C@H]1C(=O)N2S(=O)(=O)O)c1ccsc1 (mixture of isomers) [6(e), (R/S)-α-(1S,5R)-2-[2-carboxy-2-(3-thienyl)acetyl]-7-oxo-2,6-diazabicyclo[3.2.0]heptane-6-sulphonic acid triethylamine salt (1:1)]	465 nM	4 µg/mL		
NC(C(=O)N1CC[C@@H]2[C@H]1C(=O)N2S(=O)(=O)[O-])c1ccccc1F.[Na+] (mixture of isomers) [8(c), (1S,5R)-2-[DL-2-(o-Fluorophenyl)glycyl]-7-oxo-2,6-diazabicyclo[3.2.0]heptane-6-sulphonic acid sodium salt]		2 µg/mL	120 nM	
O=C(OCc1ccccc1)N1CC[C@@H]2[C@H]1C(=O)N2S(=O)(=O)O [Example 1(a), Benzyl (1S,5)-7-oxo-6-sulpho-2,6-diazabicyclo[3.2.0]heptane 2-carboxylate sodium salt]	100 nM	8 µg/mL		
Nc1cccc(NCC(=O)N2CC[C@@H]3[C@H]2C(=O)N3S(=O)(=O)O)c1 [5(i), (1S,5R)-2-[N-(m-Aminophenyl)glycyl] -7-oxo-2,6-diazabicyclo[3.2.0]heptane-6-sulphonic acid]	115 nM	2 µg/mL		
NC(C(=O)N1CC[C@@H]2[C@H]1C(=O)N2S(=O)(=O)O)c1cccc(O)c1 (mixture of isomers) [6(q), (1S,5R)-2-[DL-2-(m-Hydroxyphenyl)glycyl]-7-oxo-2,6-diazabicyclo[3.2.0]heptane-6-sulphonic acid]	375 nM	2 µg/mL		
O=C(NCCc1ccc(O)c(O)c1)N1CC[C@@H]2[C@H]1C(=O)N2S(=O)(=O)[O-].[Na+] [17(k), (1S,5R)-2-[2-(3,4-Dihydroxyphenyl)ethylcarbamoyl]-7-oxo-2,6-diazabicyclo[3.2.0]heptane-6-sulphonic acid sodium salt]		16 µg/mL	109 nM	
O=C1[C@@H]2[C@@H](CCN2S(=O)(=O)Cc2ccccc2)N1S(=O)(=O)[O-].[Na+] [11(d), (1S,5R)-2-(Benzylsulphonyl)-7-oxo-2,6-diazabicyclo [3.2.0]heptane-6-sulphonic acid sodium salt]		4 µg/mL	142 nM	
N[C@H](Cc1ccccc1)C(=O)N1CC[C@@H]2[C@H]1C(=O)N2S(=O)(=O)O [4(f), (1S,5R)-7-Oxo-2-(3-phenyl-D-alanyl)-2,6-diazabicyclo[3.2.0]heptane-6-sulphonic acid]	280 nM	4 µg/mL		
O=C(C=Cc1cncn1S(=O)(=O)[O-])N1CC[C@@H]2[C@H]1C(=O)N2S(=O)(=O)[O-].[Na+].[Na+] [23(l), (1S,5R)-7-Oxo-2-[3-(1-sulfo-imidazol-5-yl)acryloyl]-2,6-diazabicyclo[3.2.0]heptane-6-sulfonic acid sodium salt]		2 µg/mL	5 nM	
Nc1ccc(/C=C/C(=O)N2CC[C@@H]3[C@H]2C(=O)N3S(=O)(=O)O)cc1 [12(a), (1S,5R)-2-[(E)-p-Aminocinnamoyl]-7-oxo-2,6-diazabicyclo[3.2.0]heptane-6-sulphonic acid]	105 nM	4 µg/mL		
CC(C)=C[C@@H]1[C@@H](C(=O)N2CC[C@@H]3[C@H]2C(=O)N3S(=O)(=O)[O-])C1(C)C.[Na+] [23(h), (1S,5R)-2-[(1R,3R)-2,2-Dimethyl-3-(2-methyl-propenyl)-cyclopropylcarbonyl]7-oxo-2,6-diazabicyclo[3.2.0]heptane-6-sulfonic acid sodium salt]		16 µg/mL	920 nM	
O=C(/C=C/c1ccc(OS(=O)(=O)[O-])c(OS(=O)(=O)[O-])c1)N1CC[C@@H]2[C@H]1C(=O)N2S(=O)(=O)[O-].[Na+].[Na+].[Na+] [11(c), (1S,5R)-2-[(E)-3,4-Bis(sulphoxy)cinnamoyl]-7-oxo-2,6-diazabicyclo[3.2.0]heptane-6-sulphonic acid sodium salt]		16 µg/mL	1 nM	
Mixture of (1S,5R)-2-[(E)-3-(1-Methyl-3- and -4- or -3- and -5- or -4- and -5-sulfo-pyrrol-2-yl)acryloyl]-7-oxo-2,6-diazabicyclo[3.2.0]heptane-6-sulfonic acid sodium salt (1:2) [23(j)]		1 µg/mL		38 nM
O=C(NCc1ccc(O)cc1)N1CC[C@@H]2[C@H]1C(=O)N2S(=O)(=O)[O-].[Na+] [17(ab), (1S,5R)-2-[4-Hydroxy-benzylcarbamoyl]-7-oxo-2,6-diazabicyclo[3.2.0]heptane-6-sulfonic acid sodium salt]		1 µg/mL	194 nM	
O=C(NCC1CCCO1)N1CC[C@@H]2[C@H]1C(=O)N2S(=O)(=O)[O-].[Na+] (mixture of isomers) [17(y), (1S,5R)-2-[(R) and (S)-Tetrahydrofuran-2-ylmethylcarbamoyl]-7-oxo-2,6-diaza-bicyclo[3.2.0]heptane-6-sulfonic acid sodium salt]		1 µg/mL	238 nM	
N[C@@H](C(=O)N1CC[C@@H]2[C@H]1C(=O)N2S(=O)(=O)O)c1ccc(O)c(O)c1.[Na] [Example 21, (1S,5R)-2-[(R,S)-Amino-(3,4-dihydroxyphenyl)acetyl]-7-oxo-2,6-diazabicyclo[3.2.0]heptane-6-sulphonic acid sodium salt]		4 µg/mL		695 nM
O=C(COc1ccc(O)nn1)N1CC[C@@H]2[C@H]1C(=O)N2S(=O)(=O)[O-].[Na+] [5(p), (1S,5R)-2-[(6-Hydroxy-pyridazin-3-yloxy)-acetyl]-7-oxo-2,6-diazabicyclo[3.2.0]heptane-6-sulfonic acid sodium salt]		1 µg/mL	178 nM	
O=C(/C=C/c1cccs1)N1CC[C@@H]2[C@H]1C(=O)N2S(=O)(=O)O [8(a), (1S,5R)-2-[(E)-3-(2-Thienyl)acryloyl]-7-oxo-2,6-diaza-bicyclo[3.2.0]heptane-6-sulphonic acid]	75 nM	4 µg/mL		
NC(C(=O)N1CC[C@@H]2[C@H]1C(=O)N2S(=O)(=O)O)c1ccc(O)cc1 (mixture of isomers) [6(s), (1S,5R)-2-[R,S-Amino-(4-hydroxyphenyl)-acetyl]-7-oxo-2,6-diazabicyclo[3.2.0]heptane-6-sulphonic acid sodium salt]	584 nM	4 µg/mL		
N[C@@H](C(=O)N1CC[C@@H]2[C@H]1C(=O)N2S(=O)(=O)O)c1ccccc1 [4(b), (1S,5R)-7-Oxo-2-(D-2-phenylglycyl)-6-2,6-diazabicyclo[3.2.0]heptane-6-sulphonic acid]	250 nM	2 µg/mL		
O=C1SCCC1NC(=O)N1CC[C@@H]2[C@H]1C(=O)N2S(=O)(=O)O (mixture of isomers) [17(j), (1S,5R)-7-Oxo-2-(R,S)-(2-oxo-3-tetrahydrothienyl-carbamoyl)-2,6-diazabicyclo[3.2.0]heptane-6-sulphonic acid sodium salt]	79 nM	2 µg/mL		
O=C(NCc1nc(C2CC2)no1)N1CC[C@@H]2[C@H]1C(=O)N2S(=O)(=O)[O-].[Na+] [17(af), (1S,5R)-2-(3-Cyclopropyl-1,2,4-oxadiazol-5-ylmethylcarbamoyl)-7-oxo-2,6-diazabicyclo[3.2.0]heptane-6-sulfonic acid sodium salt]		1 µg/mL	107 nM	
Cn1cnnc1SCC(=O)N1CC[C@@H]2[C@H]1C(=O)N2S(=O)(=O)[O-].[Na+] [23(b), (1S,5R)-2-(4-Methyl-4H-1,2,4-triazol-3-ylsulfanylacetyl)-7-oxo-2,6-diazabicyclo[3.2.0]heptane-6-sulfonic acid sodium salt]		0.5 µg/mL	50 nM	
O=C(CSc1nnnn1-c1ccccc1)N1CC[C@@H]2[C@H]1C(=O)N2S(=O)(=O)O [5(q), (1S,5R)-7-Oxo-2-[(1-phenyl-tetrazol)-5-ylsulfanyl-acetyl]-2,6-diazabicyclo[3.2.0]heptane-6-sulfonic acid sodium salt]	5 nM	2 µg/mL		
O=C(NC1CCS(=O)(=O)C1)N1CC[C@@H]2[C@H]1C(=O)N2S(=O)(=O)[O-].[Na+] (mixture of isomers) [17(x), (1S,5R)-2-[(R) and (S)-1,1-Dioxo-tetrahydrothiophen-3-ylcarbamoyl]-7-oxo-2,6-diaza-bicyclo[3.2.0]heptane-6-sulfonic acid sodium salt]		2 µg/mL	199 nM	
O=C(Nc1nnc(SCC(=O)N2CC[C@@H]3[C@H]2C(=O)N3S(=O)(=O)[O-])s1)OCc1ccccc1.[Na+] [23(i), (1S,5R)-2-(5-Benzyloxycarbonylamino-1,3,4-thiadiazol-2-ylsulfanyl-acetyl)-7-oxo-2,6-diazabicyclo[3.2.0]heptane-6-sulfonic acid sodium salt]		1 µg/mL	70 nM	
